Values after ≈ are worked out from the molar mass of the structure shown. Where two headings read alike, the source gives them in different places. Blank lines part the entries; values can stand above or below the molecule they belong to.
Key:
Assay in all cases: Antibacterial activity against clinically isolated S. aureus (agar dilution MIC, Table 2)
Format in all cases: cell-based
[1] = system: Staphylococcus aureus TST-75; conditions: Staphylococcus aureus, TST75
Procedure: (§1) DMPPC: Methicillin, KM: Kanamycin, GM: Gentamycin, EM: Erythromycin (Note
(§2) Determined by the agar dilution method. Medium: Mueller Hinton medium
(§3) (Difco, USA) Inoculum Size: 10^6 CFU/ml, 37° C.

[2] = system: Staphylococcus aureus N121; conditions: Staphylococcus aureus
Procedure: as §1, §2, §3

[3] = system: Staphylococcus aureus N83; conditions: Staphylococcus aureus
Procedure: as §1, §2, §3

[4] = system: Staphylococcus aureus N326; conditions: Staphylococcus aureus
Procedure: as §1, §2, §3

[5] = system: Staphylococcus aureus N247-16; conditions: Staphylococcus aureus, N24716
Procedure: as §1, §2, §3

[6] = system: Staphylococcus aureus N28; conditions: Staphylococcus aureus
Procedure: as §1, §2, §3

[7] = system: Staphylococcus aureus N64; conditions: Staphylococcus aureus
Procedure: as §1, §2, §3

[8] = system: Staphylococcus aureus N91; conditions: Staphylococcus aureus
Procedure: as §1, §2, §3

[9] = system: Staphylococcus aureus N247-21; conditions: Staphylococcus aureus, N24721
Procedure: as §1, §2, §3

[10] = system: Staphylococcus aureus N247; conditions: Staphylococcus aureus
Procedure: as §1, §2, §3

[11] = system: Staphylococcus aureus N51; conditions: Staphylococcus aureus
Procedure: as §1, §2, §3

[12] = system: Staphylococcus aureus C3; conditions: Staphylococcus aureus
Procedure: as §1, §2, §3

[13] = system: Staphylococcus aureus FDA 209P; conditions: Staphylococcus aureus, FDA209P
Procedure: as §1, §2, §3

[14] = system: Staphylococcus aureus N235; conditions: Staphylococcus aureus
Procedure: as §1, §2, §3

[15] = system: Staphylococcus aureus C10; conditions: Staphylococcus aureus
Procedure: as §1, §2, §3

[16] = system: Staphylococcus aureus N267; conditions: Staphylococcus aureus
Procedure: as §1, §2, §3

[17] = system: Staphylococcus aureus N176-6; conditions: Staphylococcus aureus, N1766
Procedure: as §1, §2, §3

[18] = system: Staphylococcus aureus N237; conditions: Staphylococcus aureus
Procedure: as §1, §2, §3

[19] = system: Staphylococcus aureus N62; conditions: Staphylococcus aureus
Procedure: as §1, §2, §3

[20] = system: Staphylococcus aureus C4; conditions: Staphylococcus aureus
Procedure: as §1, §2, §3

[21] = system: Staphylococcus aureus N262; conditions: Staphylococcus aureus
Procedure: as §1, §2, §3

[22] = system: Staphylococcus aureus TS-65; conditions: Staphylococcus aureus, TS65
Procedure: as §1, §2, §3

[23] = system: Staphylococcus aureus N176; conditions: Staphylococcus aureus
Procedure: as §1, §2, §3

[24] = system: Staphylococcus aureus N8; conditions: Staphylococcus aureus
Procedure: as §1, §2, §3

[25] = system: Staphylococcus aureus C7; conditions: Staphylococcus aureus
Procedure: as §1, §2, §3

[26] = system: Staphylococcus aureus N176-3; conditions: Staphylococcus aureus, N1763
Procedure: as §1, §2, §3

[27] = system: Staphylococcus aureus N129; conditions: Staphylococcus aureus
Procedure: as §1, §2, §3

MIC ([1]; strain TST-75, agar dilution, Mueller Hinton medium, 10^6 CFU/ml, read-out: MIC): 12.5 µg/mL (≈ 32.9 µM) | MIC ([2]; strain N121, agar dilution, Mueller Hinton medium, 10^6 CFU/ml, read-out: MIC): 50 µg/mL (≈ 131 µM) | MIC ([3]; strain N83, agar dilution, Mueller Hinton medium, 10^6 CFU/ml, read-out: MIC): 3.13 µg/mL (≈ 8.23 µM) | MIC ([4]; strain N326, agar dilution, Mueller Hinton medium, 10^6 CFU/ml, read-out: MIC): 1600 µg/mL (≈ 4210 µM) | MIC ([5]; strain N247-16, agar dilution, Mueller Hinton medium, 10^6 CFU/ml, read-out: MIC): > 1600 µg/mL | MIC ([6]; strain N28, agar dilution, Mueller Hinton medium, 10^6 CFU/ml, read-out: MIC): 1600 µg/mL (≈ 4210 µM) | MIC ([7]; strain N64, agar dilution, Mueller Hinton medium, 10^6 CFU/ml, read-out: MIC): 1600 µg/mL (≈ 4210 µM) | MIC ([8]; strain N91, agar dilution, Mueller Hinton medium, 10^6 CFU/ml, read-out: MIC): 1.56 µg/mL (≈ 4.1 µM) | MIC ([9]; strain N247-21, agar dilution, Mueller Hinton medium, 10^6 CFU/ml, read-out: MIC): 200 µg/mL (≈ 526 µM) | MIC ([10]; strain N247, agar dilution, Mueller Hinton medium, 10^6 CFU/ml, read-out: MIC): 50 µg/mL (≈ 131 µM) | MIC ([11]; strain N51, agar dilution, Mueller Hinton medium, 10^6 CFU/ml, read-out: MIC): 1.56 µg/mL (≈ 4.1 µM) | MIC ([12]; strain C3, agar dilution, Mueller Hinton medium, 10^6 CFU/ml, read-out: MIC): 50 µg/mL (≈ 131 µM) | MIC ([13]; strain FDA 209P, agar dilution, Mueller Hinton medium, 10^6 CFU/ml, read-out: MIC): 1.56 µg/mL (≈ 4.1 µM) | MIC ([14]; strain N235, agar dilution, Mueller Hinton medium, 10^6 CFU/ml, read-out: MIC): 1.56 µg/mL (≈ 4.1 µM) | MIC ([15]; strain C10, agar dilution, Mueller Hinton medium, 10^6 CFU/ml, read-out: MIC): 800 µg/mL (≈ 2100 µM) | MIC ([16]; strain N267, agar dilution, Mueller Hinton medium, 10^6 CFU/ml, read-out: MIC): 100 µg/mL (≈ 263 µM) | MIC ([17]; strain N176-6, agar dilution, Mueller Hinton medium, 10^6 CFU/ml, read-out: MIC): 200 µg/mL (≈ 526 µM) | MIC ([18]; strain N237, agar dilution, Mueller Hinton medium, 10^6 CFU/ml, read-out: MIC): 20 µg/mL (≈ 52.6 µM) | MIC ([19]; strain N62, agar dilution, Mueller Hinton medium, 10^6 CFU/ml, read-out: MIC): 3.13 µg/mL (≈ 8.23 µM) | MIC ([20]; strain C4, agar dilution, Mueller Hinton medium, 10^6 CFU/ml, read-out: MIC): 50 µg/mL (≈ 131 µM) | MIC ([21]; strain N262, agar dilution, Mueller Hinton medium, 10^6 CFU/ml, read-out: MIC): 100 µg/mL (≈ 263 µM) | MIC ([22]; strain TS-65, agar dilution, Mueller Hinton medium, 10^6 CFU/ml, read-out: MIC): > 1600 µg/mL | MIC ([23]; strain N176, agar dilution, Mueller Hinton medium, 10^6 CFU/ml, read-out: MIC): 12.5 µg/mL (≈ 32.9 µM) | MIC ([24]; strain N8, agar dilution, Mueller Hinton medium, 10^6 CFU/ml, read-out: MIC): 1.56 µg/mL (≈ 4.1 µM) | MIC ([25]; strain C7, agar dilution, Mueller Hinton medium, 10^6 CFU/ml, read-out: MIC): 50 µg/mL (≈ 131 µM) | MIC ([26]; strain N176-3, agar dilution, Mueller Hinton medium, 10^6 CFU/ml, read-out: MIC): 50 µg/mL (≈ 131 µM) | MIC ([27]; strain N129, agar dilution, Mueller Hinton medium, 10^6 CFU/ml, read-out: MIC): 400 µg/mL (≈ 1050 µM)
SMILES: COc1cccc(OC)c1C(=O)N[C@@H]1C(=O)N2[C@@H]1SC(C)(C)[C@@H]2C(=O)O [DMPPC, Methicillin]

SMILES: CC[C@H]1OC(=O)[C@H](C)[C@@H](O[C@H]2C[C@@](C)(OC)[C@@H](O)[C@H](C)O2)[C@H](C)[C@@H](O[C@@H]2O[C@H](C)C[C@H](N(C)C)[C@H]2O)[C@](C)(O)C[C@@H](C)C(=O)[C@H](C)[C@@H](O)[C@]1(C)O [EM, Erythromycin]
MIC [1]: > 100 µg/mL | MIC ([2]; N121): 0.39 µg/mL (≈ 0.531 µM) | MIC ([3]; N83): > 100 µg/mL | MIC ([4]; N326): > 100 µg/mL | MIC [5]: 3.13 µg/mL (≈ 4.26 µM) | MIC ([6]; N28): > 100 µg/mL | MIC ([7]; N64): > 100 µg/mL | MIC ([8]; N91): 0.39 µg/mL (≈ 0.531 µM) | MIC [9]: 6.25 µg/mL (≈ 8.52 µM) | MIC ([10]; N247): 6.25 µg/mL (≈ 8.52 µM) | MIC ([11]; N51): 0.39 µg/mL (≈ 0.531 µM) | MIC ([12]; C3): > 100 µg/mL | MIC [13]: 0.39 µg/mL (≈ 0.531 µM) | MIC ([14]; N235): > 100 µg/mL | MIC ([15]; C10): > 100 µg/mL | MIC ([16]; N267): > 100 µg/mL | MIC [17]: > 100 µg/mL | MIC ([18]; N237): > 100 µg/mL | MIC ([19]; N62): > 100 µg/mL | MIC ([20]; C4): 0.39 µg/mL (≈ 0.531 µM) | MIC ([21]; N262): > 100 µg/mL | MIC [22]: > 100 µg/mL | MIC ([23]; N176): > 100 µg/mL | MIC ([24]; N8): > 100 µg/mL | MIC ([25]; C7): 12.5 µg/mL (≈ 17 µM) | MIC [26]: > 100 µg/mL | MIC ([27]; N129): 0.39 µg/mL (≈ 0.531 µM)

SMILES: NC[C@H]1O[C@H](O[C@H]2[C@H](O)[C@@H](O[C@H]3O[C@H](CO)[C@@H](O)[C@H](N)[C@H]3O)[C@H](N)C[C@@H]2N)[C@H](O)[C@@H](O)[C@@H]1O [KM, Kanamycin]
MIC [1]: > 100 µg/mL | MIC ([2]; N121): > 100 µg/mL | MIC ([3]; N83): > 100 µg/mL | MIC ([4]; N326): > 100 µg/mL | MIC [5]: > 100 µg/mL | MIC ([6]; N28): > 100 µg/mL | MIC ([7]; N64): > 100 µg/mL | MIC ([8]; N91): > 100 µg/mL | MIC [9]: > 100 µg/mL | MIC ([10]; N247): > 100 µg/mL | MIC ([11]; N51): 3.13 µg/mL (≈ 6.46 µM) | MIC ([12]; C3): > 100 µg/mL | MIC [13]: 0.39 µg/mL (≈ 0.805 µM) | MIC ([14]; N235): 100 µg/mL (≈ 206 µM) | MIC ([15]; C10): > 100 µg/mL | MIC ([16]; N267): > 100 µg/mL | MIC [17]: 1.56 µg/mL (≈ 3.22 µM) | MIC ([18]; N237): > 100 µg/mL | MIC ([19]; N62): 25 µg/mL (≈ 51.6 µM) | MIC ([20]; C4): > 100 µg/mL | MIC ([21]; N262): > 100 µg/mL | MIC [22]: > 100 µg/mL | MIC ([23]; N176): 3.13 µg/mL (≈ 6.46 µM) | MIC ([24]; N8): 1.56 µg/mL (≈ 3.22 µM) | MIC ([25]; C7): > 100 µg/mL | MIC [26]: 1.56 µg/mL (≈ 3.22 µM) | MIC ([27]; N129): > 100 µg/mL

— US4971965A, “Antibiotics TAN-1057” (Takeda Chemical Industries, Ltd., priority 1988, dated 1990)
